Measured values reported in EP2718307B1, “BETA-HAIRPIN PEPTIDOMIMETICS AS CXC4 ANTAGONISTS” (Polyphor AG, priority 2011, dated 2012).
Like-named read-outs stand apart in the source and are kept apart here. Bridge positions count the residues as written; N and C are the ends. Square brackets hold non-standard residues; d marks the D form. Peptide text beside a SMILES is read from it. Lys(iPr) = CC(C)NCCCC[C@H](N)C(=O)O; Orn(iPr) = CC(C)NCCC[C@H](N)C(=O)O

Assays:
[1] = Plasma stability, mouse plasma; assay type: in vitro ADME
Method: (§1) The stability of the peptides in human and mouse plasma was determined by applying the following method: 346.5 µL/deep well of freshly thawed human plasma (Basler Blutspende-dienst) and mouse plasma (Harlan Sera-Lab, UK), respectively, were spiked with 3.5 µL/well of compound dissolved in DMSO/H2O (90/10 [v/v], 1 mM, triplicate) and incubated at 37° C. At t = 0, 15, 30, 60, 120, 240 and 1440 min aliquots of 50 µL were transferred to filtration plate wells containing 150 µL/well of 2% formic acid in acetonitrile. Following shaking for 2 min the occurred suspensions were filtrated by vacuum. 100 µL of each filtrate were transferred to a propylene microtiter plate and dried under N2. The residual solids were reconstituted by adding 100 µL/well of water/acetonitrile, 95/5 (v/v) + 0.2% formic acid and analyzed by LC/MS as follows: Column: Waters, XBridge C18, mobile phases: (A) water + 0.1% formic acid and (B) acetonitrile/water, 95/5 (v/v) + 0.1% formic acid, gradient: 5%-100% (B) in 1.8 minutes, electrospray ionization, MRM detection (triple quadrupole). The peak areas were determined and triplicate values are averaged. The stability is expressed in percent of the initial value at t = 0. (tx/t0 x 100). By using the TREND function of EXCEL (Microsoft Office 2003) T1/2 were determined.

CXCR4 receptor = biological target: T1, CXCR4 receptor (Homo sapiens, UniProt P61073); experiment: Chemotactic assay (cell migration assay): response of Namalwa cells to an SDF-1 gradient; assay type: cell-based
T1 construct: Namalwa cells (CXCR4 natively expressing non-adherent cells, ATCC CRL-1432); host or cells: Namalwa cells
T1 sequence (P61073 whole entry): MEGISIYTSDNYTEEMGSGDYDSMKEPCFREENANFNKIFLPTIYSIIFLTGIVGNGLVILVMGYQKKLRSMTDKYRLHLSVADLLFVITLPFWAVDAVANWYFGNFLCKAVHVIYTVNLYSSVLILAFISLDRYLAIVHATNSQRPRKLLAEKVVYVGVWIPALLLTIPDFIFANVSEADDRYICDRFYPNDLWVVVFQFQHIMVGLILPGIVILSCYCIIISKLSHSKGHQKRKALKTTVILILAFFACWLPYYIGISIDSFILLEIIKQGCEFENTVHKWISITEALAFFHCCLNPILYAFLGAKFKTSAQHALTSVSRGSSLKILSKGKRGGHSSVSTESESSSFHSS
Method: Namalwa cells (CXCR4 natively expressing non-adherent cells, ATCC CRL-1432) were cultured in RPMI1640 plus 10% FBS, and pen/strept. HELA cells were maintained in RPMI1640 plus 10% FBS, pen/strept and 2 mM L-glutamine. Cos-7 cells were grown in DMEM medium with […] glucose supplemented with 10% FCS, pen/strept and 2 mM L-glutamine. All cell lines were grown at 37 °C at 5% CO2. Cell media, media supplements, PBS-buffer, HEPES, antibiotic/antimycotic, pen/strept, non essential amino acid, L-glutamine, β-mercaptoethanol and sera were purchased from Gibco (Pailsey, UK). All fine chemicals were supplied by Merck (Darmstadt, Germany).
The chemotactic response of Namalwa cells (ATCC CRL-1432) to a gradient of stromal cell-derived factor 1α (SDF-1) was measured using a modified Boyden chamber chemotaxis system (ChemoTx; Neuroprobe). In this system, the upper chamber of each well is separated from the lower chamber containing the chemoattractant SDF-1 by a polycarbonate membrane (5µm pore size). A circular area of that membrane in the region that covers each lower well is enclosed by a hydrophobic mask to retain the cell suspension within this area. The system was prepared by loading the bottom wells with aliquots of […] chemotaxis medium (RPMI 1640 without Phenol red + 0.5% BSA) comprising either appropriate serial dilutions of peptides or no peptide at all in combination with SDF-1 (0.9 nM) or without the chemoattractant. The membrane was placed over the bottom wells, and aliquots of 50 µL of a suspension of Namalwa cells (3.6 x 10^6 cells/mL) in chemotaxis medium, premixed with chemotaxis medium comprising either appropriate serial dilutions of peptides or no peptide at all, was delivered onto each of the hydrophobically limited regions of the upper surface of the membrane. The cells were allowed to migrate into the bottom chamber for 5 h at 37 °C in 5% CO2. After this period, the membrane was removed and its topside was carefully wiped and washed with PBS to eliminate non-migrated cells. Migrated cells were transferred using a "funnel" adaptor to a receiving 96-well plate and the cell number was determined by using the CyQuant™ NF cell proliferation assay (Invitrogen) based on the measurement of cellular DNA content via fluorescent dye binding. Following the manufacturer's directions, 50 µL of CyQuant™ dye reagent/HBSS buffer (1/500 [v/v]) were added to each well of the above mentioned receiving 96-well plate. After incubation for 0.5 h at room temperature the plate was sealed and the fluorescence intensity of each sample was measured by using a Wallac 1420 VICTOR^2™ plate reader (PerkinElmer) with excitation at 485 nm and emission detection at 535 nm. Finally, the data were normalized by using the controls and IC50-values were determined using GraphPad Prism™ (GraphPad) by fitting a logarithmic curve to the averaged datapoints.

[2] = Plasma stability, human plasma; assay type: in vitro ADME
Method: as §1

[3] = Namalwa cells, SDF-1 0.9 nM, migration 5 h, read-out: IC50 [nM] ± SD, CXCR4 receptor

| SMILES | Plasma stability mouse pl. T1/2 [1] [h] | Plasma stability mouse pl. cpd left at 1440 min [1] [%] | IC50 (CXCR4 receptor; [3]) [nM] | Plasma stability human pl. T1/2 [2] [h] | Plasma stability human pl. cpd left at 1440 min [2] [%] | Plasma stability mouse pl. T1/2 ([1]; mouse plasma, 37° C, last time point 1440 min) [h] | IC50 (CXCR4 receptor) [nM] | Plasma stability human pl. T1/2 ([2]; human plasma, 37° C, last time point 1440 min) [h] |
| --- | --- | --- | --- | --- | --- | --- | --- | --- |
| CC(C)NCCCC[C@@H]1NC(=O)[C@H](CCC(N)=O)NC(=O)[C@H](Cc2ccc(O)cc2)NC(=O)[C@@H]2CSSC[C@H](NC(=O)[C@H](Cc3ccc(O)cc3)NC(=O)[C@H](Cc3c[nH]cn3)NC(=O)[C@H](Cc3ccc(O)cc3)NC(=O)[C@@H]3CCCN3C(=O)[C@H]3CCCN3C1=O)C(=O)N[C@@H](CO)C(=O)N[C@@H](C)C(=O)N1CCC[C@@H]1C(=O)N[C@@H](CCCNC(C)C)C(=O)N[C@@H](CCCNC(=N)N)C(=O)N[C@@H](Cc1ccc(O)cc1)C(=O)N2 [Ex. 1, cyclo(-Tyr^1-His^2-Tyr^3-Cys^4-Ser^5-Ala^6-^DPro^7-Orn(iPr)^8-Arg^9-Tyr^10-Cys^11-Tyr^12-Gln^13-Lys(iPr)^14-^DPro^15-Pro^16-), disulfide bond between Cys^4 and Cys^11] (cyclo(YHYCSA[dP][Orn(iPr)]RYCYQ[Lys(iPr)][dP]P); disulfide 4-11) | 24 | 100 | 0.42 ± 0.1 | 24 | 77 | – | – | – |
| COc1ccc(C[C@@H]2NC(=O)[C@H](Cc3c[nH]cn3)NC(=O)[C@H](Cc3ccc(O)cc3)NC(=O)[C@@H]3CCCN3C(=O)[C@H]3CCCN3C(=O)[C@H](CCCCNC(C)C)NC(=O)[C@H](CCC(N)=O)NC(=O)[C@H](Cc3ccc(O)cc3)NC(=O)[C@@H]3CSSC[C@H](NC2=O)C(=O)N[C@@H](CO)C(=O)N[C@@H](C)C(=O)N2CCC[C@@H]2C(=O)N[C@@H](CCCNC(C)C)C(=O)N[C@@H](CCCNC(=N)N)C(=O)N[C@@H](Cc2ccc(O)cc2)C(=O)N3)cc1 [Ex. 2, cyclo(-Tyr^1-His^2-Tyr(Me)^3-Cys^4-Ser^5-Ala^6-^DPro^7-Orn(iPr)^8-Arg^9-Tyr^10-Cys^11-Tyr^12-Gln^13-Lys(iPr)^14-^DPro^15-Pro^16-), disulfide bond between Cys^4 and Cys^11] (cyclo(YHY(Me)CSA[dP][Orn(iPr)]RYCYQ[Lys(iPr)][dP]P); disulfide 4-11) | 24 | 100 | 0.69 ± 0.43 | 24 | 100 | – | – | – |
| COc1ccc(C[C@H]2NC(=O)[C@H](C)NC(=O)[C@H](CO)NC(=O)[C@@H]3CSSC[C@H](NC(=O)[C@H](Cc4ccc(O)cc4)NC(=O)[C@H](CCCNC(=N)N)NC(=O)[C@H](CCCNC(C)C)NC2=O)C(=O)N[C@@H](Cc2ccc(O)cc2)C(=O)N[C@@H](CCC(N)=O)C(=O)N[C@@H](CCCCNC(C)C)C(=O)N2CCC[C@@H]2C(=O)N2CCC[C@H]2C(=O)N[C@@H](Cc2ccc(O)cc2)C(=O)N[C@@H](Cc2c[nH]cn2)C(=O)N[C@@H](C)C(=O)N3)cc1 [Ex. 4, cyclo(-Tyr^1-His^2-Ala^3-Cys^4-Ser^5-Ala^6-^DTyr(Me)^7-Orn(iPr)^8-Arg^9-Tyr^10-Cys^11-Tyr^12-Gln^13-Lys(iPr)^14-^DPro^15-Pro^16-), disulfide bond between Cys^4 and Cys^11] (cyclo(YHACSA[dY](Me)[Orn(iPr)]RYCYQ[Lys(iPr)][dP]P); disulfide 4-11) | 24 | 60 | 0.18 ± 0.09 | 24 | 94 | – | – | – |
| COc1ccc(C[C@@H]2NC(=O)[C@H](Cc3c[nH]cn3)NC(=O)[C@H](Cc3ccc(O)cc3)NC(=O)[C@@H]3CCCN3C(=O)[C@H]3CCCN3C(=O)[C@H](CCCCNC(C)C)NC(=O)[C@H](CCC(N)=O)NC(=O)[C@H](Cc3ccc(O)cc3)NC(=O)[C@@H]3CSSC[C@H](NC2=O)C(=O)N[C@@H](CO)C(=O)N[C@@H](C)C(=O)N[C@H](Cc2ccc(OC)cc2)C(=O)N[C@@H](CCCNC(C)C)C(=O)N[C@@H](CCCNC(=N)N)C(=O)N[C@@H](Cc2ccc(O)cc2)C(=O)N3)cc1 [Ex. 6, cyclo(-Tyr^1-His^2-Tyr(Me)^3-Cys^4-Ser^5-Ala^6-^DTyr(Me)^7-Orn(iPr)^8-Arg^9-Tyr^10-Cys^11-Tyr^12-Gln^13-Lys(iPr)^14-^DPro^15-Pro^16-), disulfide bond between Cys^4 and Cys^11] (cyclo(YHY(Me)CSA[dY](Me)[Orn(iPr)]RYCYQ[Lys(iPr)][dP]P); disulfide 4-11) | – | – | – | – | – | 24 | 0.09 ± 0.09 | 24 |
